This is an account of results in patent US7700609B2, “Compositions useful as inhibitors of protein kinases” (Vertex Pharmaceuticals Incorporated, priority 2003, dated 2010).

This assay concerns the target T1, Itk (Homo sapiens, UniProt Q08881).
T1 sequence (Q08881 1-620): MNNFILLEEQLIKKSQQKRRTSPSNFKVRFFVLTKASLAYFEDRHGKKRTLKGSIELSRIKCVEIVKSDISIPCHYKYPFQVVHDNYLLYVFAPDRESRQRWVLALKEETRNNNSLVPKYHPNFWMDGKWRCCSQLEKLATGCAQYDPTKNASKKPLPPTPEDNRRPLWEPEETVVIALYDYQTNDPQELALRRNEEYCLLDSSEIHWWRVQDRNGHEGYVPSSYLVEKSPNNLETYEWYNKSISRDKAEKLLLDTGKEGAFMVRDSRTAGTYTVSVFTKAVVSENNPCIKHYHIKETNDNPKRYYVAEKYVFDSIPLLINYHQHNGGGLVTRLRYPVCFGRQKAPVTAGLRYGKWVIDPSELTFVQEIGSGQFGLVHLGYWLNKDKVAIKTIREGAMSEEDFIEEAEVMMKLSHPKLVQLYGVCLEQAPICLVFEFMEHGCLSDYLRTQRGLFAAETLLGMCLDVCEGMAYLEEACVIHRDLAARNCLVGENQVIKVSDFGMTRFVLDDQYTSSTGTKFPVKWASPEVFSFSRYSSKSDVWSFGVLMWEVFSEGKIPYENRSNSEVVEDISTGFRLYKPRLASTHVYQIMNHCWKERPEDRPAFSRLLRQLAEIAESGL
Nature of the assay: Itk inhibition assay: Alphascreen (Method B). To be noted: 100 μM ATP. In kind it is biochemical. As to the method: The compounds of the present invention were evaluated as inhibitors of human Itk kinase using either a radioactivity-based, spectrophotometric or alphascreen assay.
Assays were carried out in a mixture of 20 mM MOPS (pH 7.0), 10 mM MgCl2, 0.1% BSA and 1 mM DTT. Final substrate concentrations in the assay were 100 μM ATP (Sigma Chemicals) and 2 μM peptide (Biotinylated SAM68 Δ332-443). Assays were carried out at 25° C. and in the presence of 10 nM Itk. An assay stock buffer solution was prepared containing all of the reagents listed above, with the exception of ATP and the test compound of interest. 25 μL of the stock solution was placed in each well of a 96 well plate followed by 1 μL of DMSO containing serial dilutions of the test compound (typically starting from a final concentration of 15 μM) in duplicate (final DMSO concentration 2%). The plate was preincubated for 10 minutes at 25° C. and the reaction initiated by addition of 25 μL ATP (final concentration 100 μM). Background counts were determined by the addition of 5 μL 500 mM EDTA to control wells containing assay stock buffer and DMSO prior to initiation with ATP. The reaction was stopped after 30 minutes by diluting the reaction 225-fold into MOPS buffer (20 mM MOPS (pH 7.0), 1 mM DTT, 10 mM MgCl2, 0.1% BSA) containing 50 mM EDTA to bring the final concentration of peptide to 9 nM.
AlphaScreen™ reagents were prepared according to the manufacturers instructions (AlphaScreen™ phosphotyrosine (P-Tyr-100) assay kit, PerkinElmer catalogue number 6760620C). Under subdued lighting, 20 μL of AlphaScreen™ reagents were placed in each well of a white half area 96 well plate (Corning Inc.—COSTAR 3693) with 30 μL of the stopped, diluted kinase reactions. Plates were incubated in the dark for 60 minutes prior to reading on a Fusion Alpha plate reader (PerkinElmer).
After removing mean background values for all of the data points, Ki(app) data were calculated from non-linear regression analysis using the Prism software package (GraphPad Prism version 3.0cx for Macintosh, GraphPad Software, San Diego Calif., USA).
Background: Alpha assays give light when donor and acceptor beads are brought close together.
In the case of `COc1cccc(-c2cc3c(s2)CCc2cnc(Nc4cccc(NC(C)=O)c4)nc2-3)c1` [Compound I-36], the inhibition constant Ki (commonly a measure of affinity in units of concentration, obtained from inhibition or displacement) is below 1 µM.

Regarding `CC1(C)Cc2cnc(Nc3cccc(S(N)(=O)=O)c3)nc2-c2ccsc21` [Compound I-41], the Ki was below 1 µM.

For `NS(=O)(=O)c1cccc(Nc2ncc3ccc4sc(C(=O)N5CCNCC5)cc4c3n2)c1` [Compound V-4], the Ki was below 1 µM.

Regarding `NS(=O)(=O)c1cccc(Nc2ncc3ccc4sc(C(=O)N5CCCCC5)cc4c3n2)c1` [Compound V-36], the Ki was below 1 µM.

Regarding `NS(=O)(=O)c1cccc(Nc2ncc3ccc4sc(C(=O)N5CCOCC5)cc4c3n2)c1` [Compound V-37], the Ki was below 1 µM.

`CC(C)(C)OC(=O)N1CCN(C(=O)c2cc3c(ccc4cnc(Nc5cccc(S(N)(=O)=O)c5)nc43)s2)CC1` [Compound V-38] registered an inhibitory constant (Ki) below 1 µM.

As for `CC(C)(C)OC(=O)NCCCNC(=O)c1cc2c(ccc3cnc(Nc4cccc(S(N)(=O)=O)c4)nc32)s1` [Compound V-39], the Ki was below 1 µM.

`CN1CCN(C(=O)c2cc3c(ccc4cnc(Nc5cccc(S(N)(=O)=O)c5)nc43)s2)CC1` [Compound V-40] came in with a Ki below 1 µM.

With `CN(CCNC(=O)c1cc2c(ccc3cnc(Nc4cccc(S(N)(=O)=O)c4)nc32)s1)C(=O)OC(C)(C)C` [Compound V-41], the Ki was below 1 µM.

`CN(C)CCNC(=O)c1cc2c(ccc3cnc(Nc4cccc(S(N)(=O)=O)c4)nc32)s1` [Compound V-42] had a Ki below 1 µM.

In the case of `CNCCNC(=O)c1cc2c(ccc3cnc(Nc4cccc(S(N)(=O)=O)c4)nc32)s1` [Compound V-43], the inhibition constant Ki is below 1 µM.

`NCCCNC(=O)c1cc2c(ccc3cnc(Nc4cccc(S(N)(=O)=O)c4)nc32)s1` [Compound V-45]: the Ki was below 1 µM.

As for `CC(C)(C)OC(=O)NC1CCN(C(=O)c2cc3c(ccc4cnc(Nc5cccc(S(N)(=O)=O)c5)nc43)s2)CC1` [Compound V-46], the Ki is below 1 µM.

Molecule `CC(C)(C)OC(=O)NC1CCN(C(=O)c2cc3c(ccc4cnc(Nc5cccc(S(N)(=O)=O)c5)nc43)s2)C1` (centres unmarked) [Compound V-47] yielded an inhibition constant (Ki) below 1 µM.

For `NC1CCN(C(=O)c2cc3c(ccc4cnc(Nc5cccc(S(N)(=O)=O)c5)nc43)s2)CC1` [Compound V-48], the Ki is below 1 µM.

`NC1CCN(C(=O)c2cc3c(ccc4cnc(Nc5cccc(S(N)(=O)=O)c5)nc43)s2)C1` (centres unmarked) [Compound V-49] came in with a Ki below 1 µM.

In turn, `CN1CCN(C(=O)c2cc3c(ccc4cnc(Nc5ccccc5)nc43)s2)CC1` [Compound V-50] had a Ki below 1 µM.

Molecule `Nc1cccc(Nc2ncc3ccc4sc(C(=O)N5CCOCC5)cc4c3n2)c1` [Compound V-51] came in with a Ki below 1 µM.

Regarding `O=C(c1cc2c(ccc3cnc(Nc4ccccc4)nc32)s1)N1CCOCC1` [Compound V-52], the Ki was below 1 µM.

With `NC1CCN(C(=O)c2cc3c(ccc4cnc(Nc5ccccc5)nc43)s2)C1` (centres unmarked) [Compound V-54], the Ki was below 1 µM.

In turn, `NS(=O)(=O)c1cccc(Nc2ncc3ccc4nc(C(=O)N5CCNCC5)sc4c3n2)c1` [II-13] showed a Ki below 1 µM.

`Nc1cccc(Nc2ncc3ccc4sccc4c3n2)c1` [II-34] had a Ki below 1 µM.

`Cc1nc2ccc3cnc(Nc4cccc(S(N)(=O)=O)c4)nc3c2s1` [II-35] showed a Ki below 1 µM.

In turn, `CC(C)(C)C(=O)OCc1nc2ccc3cnc(Nc4cccc(S(N)(=O)=O)c4)nc3c2s1` [II-36] showed a Ki below 1 µM.

Take `NS(=O)(=O)c1cccc(Nc2ncc3ccc4nc(N5CCOCC5)sc4c3n2)c1` [II-37]: the Ki is below 1 µM.

The molecule `CCN(CC)c1nc2ccc3cnc(Nc4cccc(S(N)(=O)=O)c4)nc3c2s1` [II-38] yielded a Ki below 1 µM.

Take `NS(=O)(=O)c1cccc(Nc2ncc3ccc4nc(N5CCCCC5)sc4c3n2)c1` [II-39]: the Ki is below 1 µM.

As to `Cc1nc2c(s1)-c1nc(Nc3cccc(S(N)(=O)=O)c3)ncc1CC2` [III-4], the Ki is below 1 µM.

As to `CC(C)(C)C(=O)OCc1nc2c(s1)-c1nc(Nc3cccc(S(N)(=O)=O)c3)ncc1CC2` [III-31], the Ki was below 1 µM.
